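Interpolation was linear, between the two tested concentrations surrounding the appropriate level; five concentrations were tested over 48 hours in 96-well plates. Here, GI50 denotes the concentration required for 50% inhibition of growth.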 The source made the active and inactive calls. No stated cut-off is given here; in the data, active = GI50 up to about 1.1 µM and inactive = higher.
Columns and labels:
Assay in all cases: NCI tumour cell line growth inhibition, 48 h
DU-145 = test system: DU-145
HCT-15 = test system: HCT-15
HT-29 = test system: HT-29
KM12 = test system: KM12
MDA-MB-231 = test system: MDA-MB-231
MDA-MB-435 = test system: MDA-MB-435
NCI-H226 = test system: NCI-H226
NCI/ADR-RES = test system: NCI/ADR-RES
OVCAR-3 = test system: OVCAR-3
PC-3 = test system: PC-3
SK-MEL-2 = test system: SK-MEL-2
SN12C = test system: SN12C
SW-620 = test system: SW-620
UACC-257 = test system: UACC-257
UO-31 = test system: UO-31
A498 = test system: A498
HOP-92 = test system: HOP-92
OVCAR-8 = test system: OVCAR-8
SK-OV-3 = test system: SK-OV-3

SMILES | GI50 (DU-145) | GI50 (HCT-15) [µM] | GI50 (HT-29) | GI50 (KM12) | GI50 (MDA-MB-231) | GI50 (MDA-MB-435) | GI50 (NCI-H226) | GI50 (NCI/ADR-RES) | GI50 (OVCAR-3) | GI50 (PC-3) | GI50 (SK-MEL-2) | GI50 (SN12C) | GI50 (SW-620) | GI50 (UACC-257) | GI50 (UO-31) | GI50 (A498) | GI50 (HOP-92) | GI50 (OVCAR-8) | GI50 (SK-OV-3)
N#CC(/N=N/c1ccccc1C(=O)O)C(N)=O (configuration not stated) | > 100 µM (inactive) | 68.9 | > 100 µM (inactive) | > 100 µM (inactive) | > 100 µM (inactive) | > 100 µM (inactive) | 82.8 µM (inactive) | 39.8 µM (inactive) | > 100 µM (inactive) | > 100 µM (inactive) | > 100 µM (inactive) | > 100 µM (inactive) | > 100 µM (inactive) | > 100 µM (inactive) | > 100 µM (inactive) |  |  |  | 
Oc1ccc(-c2c3ccccc3c(-c3ccc(O)cc3)c3ccccc23)cc1 |  | > 100 | > 100 µM (inactive) | > 100 µM (inactive) |  |  | > 100 µM (inactive) |  | > 100 µM (inactive) |  | > 100 µM (inactive) | > 100 µM (inactive) | > 100 µM (inactive) | > 100 µM (inactive) | > 100 µM (inactive) | > 100 µM (inactive) | > 100 µM (inactive) | > 100 µM (inactive) | > 100 µM (inactive)
O=C(c1nc2ccccc2nc1O)C(O)c1ccccc1 (configuration not stated) |  | 96.2 | > 100 µM (inactive) | 54.6 µM (inactive) |  |  | 76.7 µM (inactive) |  | > 100 µM (inactive) |  | > 100 µM (inactive) | > 100 µM (inactive) | 86.9 µM (inactive) | > 100 µM (inactive) | 94.8 µM (inactive) | 39.5 µM (inactive) | 63.7 µM (inactive) | > 100 µM (inactive) | > 100 µM (inactive)
Cc1ccc(/C=C/C(=O)c2sc(-c3nc(C)c(C(=O)/C=C/c4ccc(C)cc4)s3)nc2C)cc1 |  | > 100 | > 100 µM (inactive) | > 100 µM (inactive) |  |  | > 100 µM (inactive) |  | > 100 µM (inactive) |  | > 100 µM (inactive) | > 100 µM (inactive) | > 100 µM (inactive) | > 100 µM (inactive) | > 100 µM (inactive) | > 100 µM (inactive) | > 100 µM (inactive) | > 100 µM (inactive) | > 100 µM (inactive)
COc1c(CC(C)=O)c2ccccc2n1C(C)=O |  | > 100 | > 100 µM (inactive) | > 100 µM (inactive) |  |  |  |  | > 100 µM (inactive) |  | > 100 µM (inactive) | > 100 µM (inactive) | > 100 µM (inactive) | > 100 µM (inactive) | > 100 µM (inactive) | > 100 µM (inactive) | > 100 µM (inactive) | > 100 µM (inactive) | > 100 µM (inactive)
C/C(CC(=O)Nc1cccc(Cl)c1C)=N\NC(N)=S |  |  | > 100 µM (inactive) | > 100 µM (inactive) |  |  | > 100 µM (inactive) |  | > 100 µM (inactive) |  | > 100 µM (inactive) |  | > 100 µM (inactive) | > 100 µM (inactive) | > 100 µM (inactive) | > 100 µM (inactive) | 30.1 µM (inactive) | > 100 µM (inactive) | > 100 µM (inactive)
CCOP12(OCC)NC(=O)OC1(C(F)(F)F)c1ccccc1O2 (configuration not stated) |  | > 100 | > 100 µM (inactive) | > 100 µM (inactive) |  |  | > 100 µM (inactive) |  | > 100 µM (inactive) |  | > 100 µM (inactive) | > 100 µM (inactive) |  | > 100 µM (inactive) | > 100 µM (inactive) |  |  | > 100 µM (inactive) | > 100 µM (inactive)
NNC(=O)CCC(=O)Nc1cc(Cl)c(Cl)cc1Cl |  | > 100 | > 100 µM (inactive) | > 100 µM (inactive) |  |  | > 100 µM (inactive) |  | 75.2 µM (inactive) |  | > 100 µM (inactive) | > 100 µM (inactive) | > 100 µM (inactive) | > 100 µM (inactive) | > 100 µM (inactive) | 38.3 µM (inactive) | > 100 µM (inactive) | > 100 µM (inactive) | > 100 µM (inactive)
Cc1ccc(NC(=O)CC2C(=O)Nc3ccccc3S2(=O)=O)c(C)c1 (configuration not stated) |  | 8.32 | 13.5 µM (inactive) |  |  |  | 17 µM (inactive) |  | 14.1 µM (inactive) |  | 29 µM (inactive) | 18.6 µM (inactive) | 5.21 µM (inactive) | 21.6 µM (inactive) | 18.8 µM (inactive) | 14.8 µM (inactive) | 15 µM (inactive) | 18.2 µM (inactive) | 
O=S(O)CCCCCSSCCCCSSCCCCCS(=O)O |  | > 100 | > 100 µM (inactive) | > 100 µM (inactive) |  |  |  |  | > 100 µM (inactive) |  | > 100 µM (inactive) | > 100 µM (inactive) | > 100 µM (inactive) | > 100 µM (inactive) | 85.3 µM (inactive) | > 100 µM (inactive) | > 100 µM (inactive) | > 100 µM (inactive) | > 100 µM (inactive)
